{"source": "patent US20090105172A1", "about": "“Stabilized Aptamers to PSMA and Their Use as Prostate Cancer Therapeutics” (priority 2005, published 2009)", "molecular_target": "T1, ECD PSMA (Homo sapiens, UniProt Q04609)", "T1 construct": "vector-derived N-terminal linker […]; made in house; host or cells: 293 Freestyle cells, pSecTag2B vector", "T1 sequence (Q04609 with tags, fused parts or gaps)": "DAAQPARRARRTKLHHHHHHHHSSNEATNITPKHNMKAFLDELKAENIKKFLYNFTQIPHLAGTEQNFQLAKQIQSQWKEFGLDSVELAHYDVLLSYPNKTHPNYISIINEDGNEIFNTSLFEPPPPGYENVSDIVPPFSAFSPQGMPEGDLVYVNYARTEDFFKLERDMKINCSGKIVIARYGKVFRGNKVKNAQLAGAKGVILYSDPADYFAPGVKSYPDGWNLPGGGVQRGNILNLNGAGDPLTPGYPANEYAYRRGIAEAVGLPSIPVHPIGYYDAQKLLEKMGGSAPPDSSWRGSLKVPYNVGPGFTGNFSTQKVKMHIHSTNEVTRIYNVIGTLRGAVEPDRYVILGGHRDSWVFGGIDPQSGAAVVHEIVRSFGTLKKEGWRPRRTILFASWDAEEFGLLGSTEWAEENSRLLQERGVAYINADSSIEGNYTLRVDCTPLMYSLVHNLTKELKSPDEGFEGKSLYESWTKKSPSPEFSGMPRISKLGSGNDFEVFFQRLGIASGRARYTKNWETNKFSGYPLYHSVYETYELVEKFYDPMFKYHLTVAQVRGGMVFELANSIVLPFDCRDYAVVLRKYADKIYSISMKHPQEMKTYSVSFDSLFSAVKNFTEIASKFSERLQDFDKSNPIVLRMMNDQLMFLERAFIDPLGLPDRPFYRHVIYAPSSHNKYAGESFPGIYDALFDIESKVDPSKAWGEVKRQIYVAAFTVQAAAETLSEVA", "assay": "Dot blot binding assay (nitrocellulose filter) with purified ECD PSMA", "conditions": "A9 minimer, without tRNA", "from_the_text": "Protein Purification of ECD of PSMA: An I.M.A.G.E. clone (5202715) encoding full length recombinant human PSMA was purchased from Open Biosystems (Clone EHS1001-18533, Huntsville, Ala.). PCR was used to amplify the extracellular portion of the full length clone. An oligo with an N-terminal histidine tag was designed to engineer a construct which lacks the transmembrane domain residues 1-44. The his-tagged extracellular domain (ECD) was subcloned into the pSecTag2B expression vector (Invitrogen, Carlsbad, Calif.). The ECD of PSMA was purified in house from transfected 293 Freestyle cells (ATCC, Manassas, Va.). The amino acid sequence of the expressed protein comprising an N-terminal linker sequence of […] followed by eight Histidines is listed below: […] VSDr[…]a[…]r[…]rYV […] (SEQ ID NO 5)\nDot Blot Binding Analysis. Dot blot binding assays were performed throughout the selections to monitor the protein binding affinity of the pools. For initial pool screening, trace ^32P-labeled pool RNA was combined with PSMA and incubated at room temperature for 30 min in 1×SHMCK buffer pH 7.4 (20 mM Hepes pH 7.4, 120 mM NaCl, 5 mM KCl, 1 mM MgCl2, 1 mM CaCl2) plus 0.1 mg/mL tRNA in a final volume of 30 μl. The mixture was applied to a dot blot apparatus (Schleicher and Schuell Minifold-1 Dot Blot, Acrylic, Keene, N.H.), assembled (from top to bottom) with nitrocellulose, nylon, and gel blot membranes. RNA that is bound to protein is captured on the nitrocellulose filter; whereas the non-protein bound RNA is captured on the nylon filter. […] The Round 9 pool was cloned and screened in a single point dot blot assay using 100 nM PSMA (0 nM PSMA was used as a negative control). Clone transcripts were 5′ end labeled with ^32-P ATP. Likely binders were than assayed for KD determination by the blot assay conditions described directly above, but without tRNA, using an 8 point PSMA titration with a constant RNA concentration. […] Both of the clones screened were unique sequences in the Round 9 selection pool.\nIn order to identify the core structural elements required for ARC955 binding to PSMA, the 3′-boundaries of the clone was determined through alkaline hydrolysis. The parent RNA transcript was labeled at the 5′-end with γ-^32P ATP and T4 polynucleotide kinase. Radiolabeled ligands were subjected to partial alkaline hydrolysis and then selectively bound in solution to ECD PSMA (purified in house) at 100 nM before being passed through nitrocellulose filters (Centrex MF 1.5 mL, 0.45 μm, Schleicher & Schuell, Keene N.H.). Retained oligonucleotides were resolved on 8% denaturing polyacrylamide gels. The smallest oligonucleotide bound to PSMA defined the 3′-boundary. On the basis of the boundary experiments as well as visual inspection of predicted folds, truncated constructs were synthesized. Clones were then assayed by dot blot as previously described to determine their KD. […] The binding curve for ARC1091 in the dot blot assay is depicted in FIG. 5A, and the predicted secondary structure of ARC1091 is depicted in FIG. 5B. The KD and maximum % bound for the 3 minimized constructs with the overall highest PSMA affinity, as determined by a dot blot binding assay, are listed in Table 4. For the minimized rGmH aptamers described in Table 5 below, the guanosine triphosphates are 2′-OH and the adenosines triphosphates, cytidine triphosphates and uridine triphosphates are 2′-OMe. Unless noted otherwise, the individual sequences are represented in the 5′ to 3′ orientation. In some embodiments, the invention comprises aptamers with a nucleic acid sequence as described in Table 4 below. In some embodiments, the nucleic acid sequence of an aptamer described in Table 4 below additionally comprises a 3′ cap (e.g., an inverted dT cap), and/or 5′ amine (NH2) modification to facilitate chemical coupling, and/or conjugation to a high molecular weight, non-immunogenic compound (e.g., PEG). […]"}
{"substance": "GGAGGAfCfCGAAAAAGAfCfCfUGAfCfUfUfCfUAfUAfCfUAAGfUfCfUAfCGfUfUfCfCfUfCfCA (GGAGGACCGAAAAAGACCUGACUUCUAUACUAAGUCUACGUUCCUCCA; 2'-fluoro at 7, 8, 17, 18, 19, 22, 23, 24, 25, 26, 28, 30, 31, 35, 36, 37, 39, 41, 42, 43, 44, 45, 46, 47, other sugars and backbone not given here) [ARC591, 48-nt minimer of A9]", "values": [{"measurement": "Kd", "result": 3.4, "unit": "nM"}]}
